# Publication PMC10938783, “A novel pan-PI3K inhibitor KTC1101 synergizes with anti-PD-1 therapy by targeting tumor suppression and immune activation” (Molecular Cancer, 2024)
# Tested on: B16 cells gene expression
# Assay: RNA-Seq (DEGs, GSEA, heatmaps) of B16 cells
# Details: B16 cells, KTC 0.2μM
# [1] = GSEA gene set HALLMARK_PI3K_AKT_MTOR_SIGNALING
# [2] = GSEA gene set HALLMARK_PROTEIN_SECRETION
# [3] = GSEA gene set HALLMARK_REACTIVE_OXIGEN_SPECIES_PATHWAY
# [4] = GSEA gene set HALLMARK_SPERMATOGENESIS
# [5] = GSEA gene set HALLMARK_TGF_BETA_SIGNALING
# [6] = GSEA gene set HALLMARK_TNFA_SIGNALING_VIA_NFKB
# [7] = GSEA gene set HALLMARK_UNFOLDED_PROTEIN_RESPONSE
# [8] = GSEA gene set HALLMARK_UV_RESPONSE_DN
# [9] = GSEA gene set HALLMARK_UV_RESPONSE_UP
# [10] = GSEA gene set HALLMARK_WNT_BETA_CATENIN_SIGNALING
# [11] = GSEA gene set HALLMARK_XENOBIOTIC_METABOLISM
structure (smiles),measurement,setting,value
"COc1cc(N)cc2c1nc(C(F)F)n2-c1nc(N2CCCOCC2)nc(N2CCOCC2)n1 [KTC1101, 2-(difluoromethyl)-4-methoxy-1-(4-morpholino-6-(1,4-oxazepan-4-yl)-1,3,5-triazin-2-yl)-1H-benzo[d]imidazol-6-amine]",enrichmentScore,GSEA gene set HALLMARK_PEROXISOME,-0.395
same,NES,[1],-2.189
same,enrichmentScore,[1],-0.5044
same,NES,[2],-1.203
same,enrichmentScore,[2],-0.2769
same,NES,[3],-1.95
same,enrichmentScore,[3],-0.5432
same,NES,[4],-1.401
same,enrichmentScore,[4],-0.3536
same,NES,[5],1.944
same,enrichmentScore,[5],0.6123
same,NES,[6],2.211
same,enrichmentScore,[6],0.5723
same,NES,[7],-1.548
same,enrichmentScore,[7],-0.347
same,NES,[8],1.23
same,enrichmentScore,[8],0.3315
same,NES,[9],1.315
same,enrichmentScore,[9],0.3557
same,NES,[10],0.901
same,enrichmentScore,[10],0.3071
same,NES,[11],-1.2042
same,enrichmentScore,[11],-0.2641
same,NES: Glycolysis / Gluconeogenesis,GSEA KEGG mmu00010,-1.905
same,enrichmentScore: Glycolysis / Gluconeogenesis,GSEA KEGG mmu00010,-0.5183
same,NES: Citrate cycle (TCA cycle),GSEA KEGG mmu00020,-1.91
same,enrichmentScore: Citrate cycle (TCA cycle),GSEA KEGG mmu00020,-0.5694
same,NES: Pentose phosphate pathway,GSEA KEGG mmu00030,-1.779
same,enrichmentScore: Pentose phosphate pathway,GSEA KEGG mmu00030,-0.5767
same,NES: Fructose and mannose metabolism,GSEA KEGG mmu00051,-1.345
same,enrichmentScore: Fructose and mannose metabolism,GSEA KEGG mmu00051,-0.4104
same,NES: Galactose metabolism,GSEA KEGG mmu00052,-1.484
same,enrichmentScore: Galactose metabolism,GSEA KEGG mmu00052,-0.4712
same,NES: Oxidative phosphorylation,GSEA KEGG mmu00190,-2.112
same,enrichmentScore: Oxidative phosphorylation,GSEA KEGG mmu00190,-0.4855
same,NES: Purine metabolism,GSEA KEGG mmu00230,1.524
same,enrichmentScore: Purine metabolism,GSEA KEGG mmu00230,0.4484
same,NES: Pyrimidine metabolism,GSEA KEGG mmu00240,-1.587
same,enrichmentScore: Pyrimidine metabolism,GSEA KEGG mmu00240,-0.5015
same,"NES: Alanine, aspartate and glutamate metabolism",GSEA KEGG mmu00250,-1.481
same,"enrichmentScore: Alanine, aspartate and glutamate metabolism",GSEA KEGG mmu00250,-0.506
same,"NES: Glycine, serine and threonine metabolism",GSEA KEGG mmu00260,-2.025
same,"enrichmentScore: Glycine, serine and threonine metabolism",GSEA KEGG mmu00260,-0.643
same,NES: Cysteine and methionine metabolism,GSEA KEGG mmu00270,-1.68
same,enrichmentScore: Cysteine and methionine metabolism,GSEA KEGG mmu00270,-0.4743
same,"NES: Valine, leucine and isoleucine degradation",GSEA KEGG mmu00280,-1.453
same,"enrichmentScore: Valine, leucine and isoleucine degradation",GSEA KEGG mmu00280,-0.399
same,NES: Arginine and proline metabolism,GSEA KEGG mmu00330,-1.547
same,enrichmentScore: Arginine and proline metabolism,GSEA KEGG mmu00330,-0.474
same,NES: Glutathione metabolism,GSEA KEGG mmu00480,-1.885
same,enrichmentScore: Glutathione metabolism,GSEA KEGG mmu00480,-0.5172
same,NES: Amino sugar and nucleotide sugar metabolism,GSEA KEGG mmu00520,-1.225
same,enrichmentScore: Amino sugar and nucleotide sugar metabolism,GSEA KEGG mmu00520,-0.3367
same,NES: Glycerolipid metabolism,GSEA KEGG mmu00561,-1.232
same,enrichmentScore: Glycerolipid metabolism,GSEA KEGG mmu00561,-0.3383
same,NES: Ether lipid metabolism,GSEA KEGG mmu00565,-1.318
same,enrichmentScore: Ether lipid metabolism,GSEA KEGG mmu00565,-0.4355
same,NES: Pyruvate metabolism,GSEA KEGG mmu00620,-1.8611
same,enrichmentScore: Pyruvate metabolism,GSEA KEGG mmu00620,-0.5447
same,NES: Glyoxylate and dicarboxylate metabolism,GSEA KEGG mmu00630,-2.109
same,enrichmentScore: Glyoxylate and dicarboxylate metabolism,GSEA KEGG mmu00630,-0.6578
same,NES: Propanoate metabolism,GSEA KEGG mmu00640,-1.418
same,enrichmentScore: Propanoate metabolism,GSEA KEGG mmu00640,-0.4326
same,NES: Terpenoid backbone biosynthesis,GSEA KEGG mmu00900,-2.318
same,enrichmentScore: Terpenoid backbone biosynthesis,GSEA KEGG mmu00900,-0.7921
same,NES: Drug metabolism - other enzymes,GSEA KEGG mmu00983,-1.978
same,enrichmentScore: Drug metabolism - other enzymes,GSEA KEGG mmu00983,-0.5867
same,NES: Carbon metabolism,GSEA KEGG mmu01200,-2.129
same,enrichmentScore: Carbon metabolism,GSEA KEGG mmu01200,-0.4924
same,NES: 2-Oxocarboxylic acid metabolism,GSEA KEGG mmu01210,-1.574
same,enrichmentScore: 2-Oxocarboxylic acid metabolism,GSEA KEGG mmu01210,-0.4801
same,NES: Fatty acid metabolism,GSEA KEGG mmu01212,-1.192
same,enrichmentScore: Fatty acid metabolism,GSEA KEGG mmu01212,-0.3243
same,NES: Biosynthesis of amino acids,GSEA KEGG mmu01230,-2.742
same,enrichmentScore: Biosynthesis of amino acids,GSEA KEGG mmu01230,-0.7082
same,NES: Nucleotide metabolism,GSEA KEGG mmu01232,-1.799
same,enrichmentScore: Nucleotide metabolism,GSEA KEGG mmu01232,-0.4975
same,NES: Biosynthesis of cofactors,GSEA KEGG mmu01240,-1.22
same,enrichmentScore: Biosynthesis of cofactors,GSEA KEGG mmu01240,-0.2823
same,NES: EGFR tyrosine kinase inhibitor resistance,GSEA KEGG mmu01521,1.545
same,enrichmentScore: EGFR tyrosine kinase inhibitor resistance,GSEA KEGG mmu01521,0.4546
